Results on 16 compounds are retold here after patent publication US9108905B2, “TRPA1 antagonists” (AbbVie Inc., priority 2008, dated 2015).

Usually IC50 stands for the midpoint of a concentration-inhibition curve. Higher therefore signals lower potency. One may read the Cmax as the highest concentration seen after dosing. By Kp is commonly meant the ratio of the level in a tissue or fluid to that in plasma or blood. In general, bioavailability refers to dose-corrected exposure relative to a reference, in per cent. Read a high bioavailability as good availability. A word on the ED50: it is the dose that gives a 50% effect, or the effect in half of the subjects.

The target of one series is Human TRPA1 (Homo sapiens (Human), UniProt O75762). As to the kind of experiment: FLIPR based intracellular Ca2+ assay and membrane potential assay, inhibition of AITC-activated TRPA1. The conditions noted are these: Table 1, AITC as agonist, HEK293-F cells transiently expressing human TRPA1. The format is cell-based. How it is done:
Molecular biology and transient expression were performed as described in Chen, J. et al., Journal of Biomolecular Screening 2007, 12, 61-69. Briefly, TRPA1 full length cDNA was amplified from human dorsal root ganglia total RNA (BD Bioscience Clontech, Palo Alto, Calif., USA) and was cloned into pcDNA3.1/V5-His Topo vector (Invitrogen, Carlsbad, Calif.). Large scale transient transfection was performed using the FreeStyle™ 293 Expression System as recommended by the manufacturer (Invitrogen). HEK293-F cells were grown in suspension in flasks (cell volume 30 mL to 1 liter) or in a Wave Bioreactor (Wave Biotech, Somerset, N.J.) (6 liters). To support high density, suspension culture and transfection, cells were cultured in FreeStyle 293 media, an optimized, serum free formulation. 293fectin™ (Invitrogen) was used as transfection reagent. In a transfection of 3×10^7 cells (30 mL volume), 30 μg of plasmid DNA and 40 μL 293 fectin were used. For a larger volume transfection, each reagent was scaled up proportionally. Two days post-transfection, cells were harvested by centrifugation (1000×g, 5 minutes) and resuspended to a density of 1.5×10^7 cells/mL in freezing medium (Freestyle media/10% serum/10% DMSO). Cells were transferred into cryovials in 2 mL aliquots, and these vials were placed in Nalgene Mr. Frosty slow-freeze devices (Sigma-Aldrich, St. Louis, Mo.) at −80° C. As needed, vials were removed from −80° C. and quickly thawed in a 37° C. water bath. Cells were aseptically transferred into conical tubes containing Freestyle media (10 mL/vial). After centrifugation at 1,000×g for 3-5 minutes, medium was removed by aspiration and cells were resuspended in Freestyle medium at desired densities (typically 1×10^6 cells/mL). Re-suspended cells were seeded into black-walled clear-bottom 96-well Biocoat™ poly-D-lysine assay plates (BD Biosciences, Bedford, Mass.)(10^5 cells/well) and incubated overnight at 37° C. under a humidified 5% CO2 atmosphere.
FLIPR Based Intracellular Ca^2+ Assay and Membrane Potential Assay
Ca^2+ influx was measured using a FLIPR calcium assay kit (R8033; Molecular Devices, Sunnyvale, Calif.). The Ca^2+ indicator dye was dissolved in Hanks' balanced salt solution supplemented with 20 mM HEPES buffer (HBSS/HEPES) according to the manufacturer instructions. […] (4×) solutions of the test compounds were prepared in HBSS/HEPES, and 50 μL were added to the cells at a delivery rate of 10 μL/sec. Changes in fluorescence were measured over time in a fluorometric imaging plate reader (FLIPR, Molecular Devices). Two additions were made over the course of an experimental run. For agonist experiments, assay buffer was added at the 10 s time point, followed by addition of agonist at the 3 minute 10 sec time point. For antagonist experiments, the antagonist was added at the 10 sec time point, followed by addition of the agonist 3 minutes later. Final assay volume for both the agonist and antagonist experiments was 200 μL. Total length of an experimental run was 6.5 minutes.
Data was analyzed with GraphPad Prism® software (GraphPad Software, San Diego, Calif.), using a four-parameter logistic Hill equation to curve-fit concentration-effect data and derive EC50 or IC50 values. Numerical values are reported as mean±SEM (n=number of experiments). SEM is calculated by dividing the standard deviation by the square root of the sample size […].
Changes in membrane potential were measured in hTRPA1-expressing LSTT cells using a FLIPR membrane potential assay kit (R8034, Molecular Devices). The procedure for thawing and plating the LSTT cells was identical to the Ca^2+ influx assay (see above). The membrane potential dye was dissolved in HBSS/HEPES buffer according to the manufacturer's instructions, and then cells were loaded with dye (100 μL/well) for 45 minutes to 2 hours at room temperature.

Series [1] can be described thus: Pharmacokinetics after oral dose in fasted male Sprague-Dawley rats (plasma and brain). In kind it is in vivo. The note with it: rat. How it is done:
Groups of three fasted male Sprague-Dawley rats received a 10 μmol/kg ([…]) oral dose of the test compound, administered by gavage. The compounds were prepared as a solution in a 10% DMSO/poly(ethylene glycol)-400 (v/v). Blood samples were obtained from each animal at various time points up to eight hours after dosing.
Test compound was selectively extracted from plasma and brain homogenate using liquid-liquid extraction with tert-butylmethylether. The compounds of interest were separated from co-extracted contaminants on a 50×3 mm, Luna CN column (Phenomenex), with an acetonitrile:0.1% aqueous trifluoroacetic acid mobile phase at a flow rate of 0.35 ml/min. Plasma concentrations were determined by HPLC-MS/MS on an API2000 with Turbo Ion Spray interface, with MRM detection in the positive ionization mode. To calibrate compound concentration, a separate portion of each tissue sample was spiked with a known quantity of test compound and analyzed simultaneously with the samples.

The nature of series [2]: Plasma concentration measured in the osteoarthritis grip force model. In kind it is in vivo, rats. From the text: (§1) FIG. 1—depicts the effect of Example 1 on hindlimb grip force in osteoarthritic rats measurement system (Columbus Instruments, Columbus, Ohio). […] During testing, each rat was gently restrained by grasping around its rib cage and then allowed to grasp the wire mesh frame (10-12 cm^2) attached to the strain gauge. The experimenter then moved the animal in a rostral-to-caudal direction until the grip was broken. Each rat was sequentially tested twice at approximately 2-minute interval to obtain a raw mean grip force (CFmax). This raw mean grip force data was in turn converted to a maximum hind limb compressive force (CFmax) (gram force) per kg body weight for each animal. A group of age matched naïve animals was added to each experiment and the data obtained from the different dose groups for the compound being tested were compared to the naïve group. […] At the 100 μmol/kg dose in the osteoarthritis grip force model, the measured plasma concentration of Example 1 was 6.2 μM.

The next series deals with osteoarthritic rats. As to the kind of experiment: Effects on hind limb grip force in MIA-induced osteoarthritic rats. In kind it is in vivo. How it is done: Unilateral knee joint osteoarthritis was induced in the rats by a single intra-articular (i.a.) injection of sodium monoiodoacetate (MIA) (Sigma, St. Louis, Mo.) (3 mg in 0.05 mL sterile isotonic saline) into the joint cavity using a 26G needle under light (2-4%) halothane (Halocarbon Laboratories, River Edge, N.J.) anesthesia. Following injection, the animals were allowed to recover from the effects of anesthesia (usually 5-10 minutes) before returning them to their home cages. Animals were tested 21 days after MIA injection. Measurements of peak hind limb grip force were conducted by recording the maximum compressive force exerted on the hind limb strain gauge setup, in a commercially available grip force
as §1, with “(CFmax).” for “(CFmax). This raw mean grip force data was in turn converted to a maximum hind limb compressive force (CFmax) (gram force) per kg body weight for each animal. A group of age matched naïve animals was added to each experiment and the data obtained from the different dose groups for the compound being tested were compared to the naïve group.”

Human TRPA1, sequence (O75762 whole entry): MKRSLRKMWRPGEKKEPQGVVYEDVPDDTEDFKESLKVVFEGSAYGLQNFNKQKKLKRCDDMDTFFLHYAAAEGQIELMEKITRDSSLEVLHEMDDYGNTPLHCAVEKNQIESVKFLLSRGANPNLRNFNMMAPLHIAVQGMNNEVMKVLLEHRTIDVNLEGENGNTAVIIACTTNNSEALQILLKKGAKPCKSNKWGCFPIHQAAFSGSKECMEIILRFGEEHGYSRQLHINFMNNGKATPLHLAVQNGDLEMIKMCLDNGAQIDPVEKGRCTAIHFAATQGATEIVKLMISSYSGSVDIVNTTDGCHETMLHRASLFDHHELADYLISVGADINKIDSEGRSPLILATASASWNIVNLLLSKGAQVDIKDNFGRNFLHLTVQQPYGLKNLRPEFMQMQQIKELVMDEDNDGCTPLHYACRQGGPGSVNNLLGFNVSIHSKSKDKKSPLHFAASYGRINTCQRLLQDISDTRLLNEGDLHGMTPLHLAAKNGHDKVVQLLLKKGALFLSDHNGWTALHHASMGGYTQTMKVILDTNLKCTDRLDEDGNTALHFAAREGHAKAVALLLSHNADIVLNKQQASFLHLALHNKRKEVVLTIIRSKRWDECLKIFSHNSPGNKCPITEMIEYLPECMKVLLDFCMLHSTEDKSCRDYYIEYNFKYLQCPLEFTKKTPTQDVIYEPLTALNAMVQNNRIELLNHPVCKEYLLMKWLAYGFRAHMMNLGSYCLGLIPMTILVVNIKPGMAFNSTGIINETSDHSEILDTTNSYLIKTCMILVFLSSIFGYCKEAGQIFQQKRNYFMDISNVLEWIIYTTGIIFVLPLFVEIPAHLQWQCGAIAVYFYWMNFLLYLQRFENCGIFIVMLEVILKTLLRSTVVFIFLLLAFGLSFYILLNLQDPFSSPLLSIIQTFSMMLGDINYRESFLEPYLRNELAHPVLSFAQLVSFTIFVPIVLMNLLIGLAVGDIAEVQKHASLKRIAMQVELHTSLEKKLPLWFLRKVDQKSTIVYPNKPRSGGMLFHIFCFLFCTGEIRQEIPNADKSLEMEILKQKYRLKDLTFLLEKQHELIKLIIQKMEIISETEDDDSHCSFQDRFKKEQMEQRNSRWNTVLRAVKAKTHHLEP

At Human TRPA1, `CCC(=N\O)/C(C)=C/c1ccc(F)c(C)c1` [Example 17, (1E,3E)-1-(4-fluoro-3-methylphenyl)-2-methylpent-1-en-3-one oxime] gave a half-inhibitory concentration (IC50) above 100 µM. Consider `CCC(=N\O)/C(C)=C/c1ccc(F)c(C(F)(F)F)c1` [Example 18, (1E,3E)-1-[4-fluoro-3-(trifluoromethyl)phenyl]-2-methylpent-1-en-3-one oxime], for which the IC50 on Human TRPA1 is above 100 µM. With “(1E,3E)-1-(4-fluorophenyl)pent-1-en-3-one oxime and (1E,3Z)-1-(4-fluorophenyl)pent-1-en-3-one oxime, about 1:1 mixture [Example 13]”, the concentration for half-maximal inhibition (IC50) at Human TRPA1 turned out to be 9.46 µM. The compound `CCCCC(=N\O)/C(C)=C/c1ccc(F)cc1` [Example 6, (1E,3E)-1-(4-fluorophenyl)-2-methylhept-1-en-3-one oxime] returned a half-maximal inhibitory concentration (IC50) at Human TRPA1 of 4.4 µM. `CCC(=N\O)/C(C)=C/c1ccc(F)c(Cl)c1` [Example 9, (1E,3E)-1-(3-chloro-4-fluorophenyl)-2-methylpent-1-en-3-one oxime] returned an IC50 at Human TRPA1 of 6 µM. On Human TRPA1, `CC(=C\c1ccc(F)cc1)/C(=N\O)C(C)C` [Example 7, (1E,3Z)-1-(4-fluorophenyl)-2,4-dimethylpent-1-en-3-one oxime] gave an IC50 of 0.85 µM. As for `CC(=C\c1ccc(F)cc1)/C(=N/O)C(C)(C)C` [Example 5, (1E,3E)-1-(4-fluorophenyl)-2,4,4-trimethylpent-1-en-3-one oxime], the IC50 on Human TRPA1 came to 8 µM. For `CCC(=N\O)/C(C)=C/c1ccc(F)cc1` [Example 1, (1E,3E)-1-(4-fluorophenyl)-2-methylpent-1-en-3-one oxime], the peak concentration (Cmax) in series [1] (10 umol/kg, oral, plasma) came to 720 nM. In addition, the Kp in series [1] (brain and plasma, 10 μmol/kg, after oral administration, text calls it brain/plasma ratio) turned out to be 1.2. For the same compound, the bioavailability in series [1] (plasma, 10 umol/kg, oral gavage, solution in 10% DMSO/PEG-400) worked out at 38%. This compound showed a measured plasma concentration in series [2] (100 μmol/kg oral dose, osteoarthritis grip force model) of 6.2 µM. The “plasma and brain exposure” value in series [2] (with increasing oral dose, rat) is “excellent plasma and brain exposure”. The ED50 in the series on osteoarthritic rats (Rattus norvegicus, po, 21 days after MIA injection, 95% CI 79-158 μmol/kg, read-out: ED50, hindlimb grip force) is 112 µmol/kg. Moreover, the “efficacy in osteoarthritis grip force model” value with osteoarthritic rats (p.o.) was “fully efficacious”.

As for `CCC(=N\O)/C(C)=C/c1ccccc1F` [Example 3, (1E,3E)-1-(2-fluorophenyl)-2-methylpent-1-en-3-one oxime], the IC50 on Human TRPA1 came out at 4.6 µM. Still for that read-out and setting: in the case of `CCCCC(/C=C/c1ccc(F)cc1)=N\O` [Example 16, (1E,3E)-1-(4-fluorophenyl)hept-1-en-3-one oxime] it was above 100 µM. For `CC(/C=C/c1ccc(F)cc1)=N\O` [Example 11, (2E,3E)-4-(4-fluorophenyl)but-3-en-2-one oxime], on Human TRPA1, the half-maximal inhibitory concentration (IC50) came to 20.6 µM. With `CC(=C\c1ccc(F)cc1)/C(=N/O)C(C)C` [Example 8, (1E,3E)-1-(4-fluorophenyl)-2,4-dimethylpent-1-en-3-one oxime], the IC50 on Human TRPA1 stood at 3.3 µM. Same read-out and setting: the same measure for `CCC(=N\O)/C(C)=C/c1cc(F)c(F)c(F)c1` [Example 15, (1E,3E)-2-methyl-1-(3,4,5-trifluorophenyl)pent-1-en-3-one oxime]: 4.67 µM; for `CCCC(/C=C/c1ccc(F)cc1)=N\O` [Example 12, (1E,3E)-1-(4-fluorophenyl)hex-1-en-3-one oxime]: 5.91 µM; for `CCC(=N\O)/C(C)=C/c1ccc(F)c(F)c1` [Example 14, (1E,3E)-1-(3,4-difluorophenyl)-2-methylpent-1-en-3-one oxime]: 0.574 µM. In the case of `CCCC(=N\O)/C(C)=C/c1ccc(F)cc1` [Example 4, (1E,3E)-1-(4-fluorophenyl)-2-methylhex-1-en-3-one oxime], the IC50 at Human TRPA1 was determined as 0.5 µM.
